Source: patent US20060079534A1, “Cell division inhibitor and a production method thereof” (priority 2000, published 2006)
In brackets after ≈: the same amount, converted by molar mass.

Legend:
[1] = test system: cleavage division of Hemicentrotus pulcherrimus; experiment: Inhibition test for cell division (cleavage division); assay type: in vivo; conditions: observed 4 hours after fertilization; * = no activity at the indicated concentration
Procedure: (§1) Physiological activity of each dehydrodiketopiperazine will be described below. Each dehydrodiketopiperazine was tested for its inhibitory activity against cleavage division of Hemicentrotus pulcherrimus, Scaphechinus mirabilis and Temnopleurus toreumaticus as a cell division inhibitory activity. The test was carried out as described in The Journal of Antibiotics, Vol. 52, p. 1017 (1999). However, stages at which the first cleavage division occurs vary among sea urchins, so that inhibition of the cleavage division was observed after 4 hours of fertilization in the tests using Hemicentrotus pulcherrimus and Scaphechinus mirabilis, and after one hour of fertilization in the test using Temnopleurus toreumaticus, respectively.

[2] = test system: cleavage division of Scaphechinus mirabilis; experiment: as above; assay type: in vivo; conditions: observed 4 hours after fertilization; * = no activity at the indicated concentration
Procedure: as §1

[3] = test system: cleavage division of Temnopleurus toreumaticus; experiment: as above; assay type: in vivo; conditions: observed one hour after fertilization; * = no activity at the indicated concentration
Procedure: as §1

[4] = test system: tumor; conditions: cited from earlier work
[5] = test system: tubulin; conditions: cited from earlier work
[6] = test system: cancer cell transplanted model animal; conditions: cited from earlier work
[7] = test system: dehydrogenase (cell-free extract); experiment: Amount of dehydrogenation of each substrate by enzyme (change in absorbance at 600 nm due to coenzyme); assay type: biochemical, Streptomyces albulus KO23; conditions: relative value of change in absorbance at 600 nm, CFL set to 100; substrate 0.5 mM, 37° C.
[8] = test system: sea urchin embryo division; conditions: Kanzaki et al. 1999; cited from earlier work
[9] = test system: bacteria; conditions: Fukushima et al. 1973; cited from earlier work
[10] = test system: pronuclear fusion; conditions: Kobayashi et al. 1989; cited from earlier work
[11] = test system: cleavage division of Hemicentrotus pulcherrimus, Scaphechinus mirabilis and Temnopleurus toreumaticus; experiment: Comparison of cell division inhibitory activity across the sea urchin tests; assay type: in vivo, sea urchins; conditions: ratio of MIC values
Procedure: as §1

| SMILES | MIC Hemicentrotus pulcherrimus [1] | MIC Scaphechinus mirabilis [2] | MIC Temnopleurus toreumaticus [3] | Amount of dehydrogenation [7] | other results |
| --- | --- | --- | --- | --- | --- |
| C=CC(C)(C)c1[nH]cnc1C=C1NC(=O)C(Cc2ccccc2)NC1=O (single isomer, unassigned; (-)) [(−)-phenylahistin, 3-{[5-(1,1-dimethyl-2-propenyl)imidazole-4-yl]methylene}-6-benzylpiperazine-2,5-dione] | 0.39 µg/mL (≈ 1.11 µM) | 1.6 µg/mL (≈ 4.57 µM) | 0.2 µg/mL (≈ 0.571 µM) |  | antitumor activity relative to (+)-phenylahistin ([4]; times stronger than (+)-phenylahistin, approx.): 30-100 times; inhibition of the polymerization of tubulin [5]: inhibits the polymerization of tubulin; antitumor effect [6]: a certain degree of antitumor activity |
| CC(C)C[C@@H]1NC(=O)[C@H](Cc2ccccc2)NC1=O [CFL] |  |  |  | 100 |  |
| O=C(O)CCC1NC(=O)C(CCC(=O)O)NC1=O (centres unmarked) [CEE] |  |  |  | 14 |  |
| O=c1[nH]c(=Cc2ccccc2)c(=O)[nH]c1=Cc1ccccc1 [tetradehydrocyclo (Phe-Phe)] |  |  |  |  | sea urchin embryo division inhibitory activity [8]: exhibits sea urchin embryo division inhibitory activity |
| O=C1N[C@@H](Cc2c[nH]cn2)C(=O)N[C@H]1Cc1ccccc1 [CFH, cyclophenylalanylhistidyl] | >25* μg/ml | >25* μg/ml | >25* μg/ml | 44 |  |
| O=C(O)CC1NC(=O)C(CC(=O)O)NC1=O (centres unmarked) [CDD] |  |  |  | 14 |  |
| CC(C)/C=c1\[nH]c(=O)/c(=C/c2ccccc2)[nH]c1=O [albonoursin, 3-(Z)-benzylidene-6-(Z)isobutylidene-2,5-piperazine dione] | 6.3 µg/mL (≈ 24.6 µM) | >13* μg/ml | >25* μg/ml |  | antitumor activity ([4]; Fukushima et al. 1973): has an antitumor activity; antibacterial activity [9]: antibacterial activity; inhibition of pronuclear fusion [10]: acts to inhibit the pronuclear fusion |
| O=c1[nH]/c(=C\c2c[nH]cn2)c(=O)[nH]/c1=C\c1ccccc1 [(Z,Z)-tetradehydro-CFH, Z-tetradehydrocyclophenylalanylhistidyl] | 0.78 µg/mL (≈ 2.78 µM) | 1.6 µg/mL (≈ 5.71 µM) | 1.6 µg/mL (≈ 5.71 µM) |  | inhibitory activity compared with CFH [11]: ≥ 15 fold |
| CSCCC1NC(=O)C(CCSC)NC1=O (centres unmarked) [CMM] |  |  |  | 27 |  |
| C=CC(C)(C)c1[nH]cnc1/C=c1\[nH]c(=O)/c(=C/c2ccccc2)[nH]c1=O [dehydrophenylahistin, (Z, Z)-dehydrophenylahistin] | 0.00038 µg/mL (≈ 0.00109 µM) | 0.0061 µg/mL (≈ 0.0175 µM) | 0.0061 µg/mL (≈ 0.0175 µM) |  |  |
| CC(C)CC1NC(=O)C(Cc2ccc(O)cc2)NC1=O (centres unmarked) [CLY] |  |  |  | 14 |  |
| C=CC(C)(C)c1[nH]cnc1C=C1NC(=O)C(Cc2ccccc2)NC1=O (single isomer, unassigned; (+)) [(+)-phenylahistin, 3-{[5-(1,1-dimethyl-2-propenyl)imidazole-4-yl]methylene}-6-benzylpiperazine-2,5-dione] | 13 µg/mL (≈ 37.1 µM) | >13* μg/ml | 6.3 µg/mL (≈ 18 µM) |  |  |
